The values below come from patent publication US11827637B2, “Azaindole derivatives and their use as ERK kinase inhibitors” (AGV Discovery, priority 2022, dated 2023).

Molecules are shown by their SMILES.

T1 sequence (P28482 whole entry): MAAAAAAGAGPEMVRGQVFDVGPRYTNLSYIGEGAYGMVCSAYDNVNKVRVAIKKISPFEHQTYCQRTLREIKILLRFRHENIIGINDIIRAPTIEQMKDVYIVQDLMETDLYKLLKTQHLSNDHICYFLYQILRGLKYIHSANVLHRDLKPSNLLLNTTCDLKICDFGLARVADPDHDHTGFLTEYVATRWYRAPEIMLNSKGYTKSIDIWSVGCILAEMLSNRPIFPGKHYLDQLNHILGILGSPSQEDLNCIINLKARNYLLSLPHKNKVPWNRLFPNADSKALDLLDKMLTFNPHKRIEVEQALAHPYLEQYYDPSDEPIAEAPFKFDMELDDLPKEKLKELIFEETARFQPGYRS

The subject of the first assay is A375 cells (malignant melanoma). Put plainly: Cell line proliferation assay (MTT, A375). Format: cell-based. The note with it: Homo sapiens, A-375, 72 hours. The method, then: A cell line assay was used to determine the capacity of compounds to inhibit cell proliferation. A375 cells (malignant melanoma) were grown to near 80% confluence and seeded at 3000 cells per 100 μl per well in DMEM with 10% FBS in 96-well flat bottom plates. Cells were incubated for 24 hours at 37° C. under 5% CO2. 100 μl compound solutions were added to cells and incubated for 72 hours at 37° C. Total volume of media was 200 μl per well. Compounds were screened in 0.15% DMSO (final) using 10 titration points in duplicate. Negative control wells consisted of vehicle only (0.15% DMSO in 10% FBS DMEM). After 72 hours of compound treatment, SDS 1% (final) was added to positive control wells for 15 minutes at 37° C. Then, medium was discarded and replaced by 100 μl per well of a MTT solution (3-[4.5-dimethylthiazol-2-yl]-2.5-diphenyltetrazolium bromide) (Sigma, Cat #M5655) at 0.5 mg/ml in 10% FBS DMEM. Cells were incubated for 4 hours at 37° C. MTT reaction was stopped and homogenized by the addition of 100 μl per well of SDS 10% 0.01M HCl. After 16 hours at 37° C., absorbance was measured at 570 nm in a Bio-Tek plate reader (PowerWave HT). […] Analysis was performed using GraphPad Prism software.
For orientation: IC50 means the concentration that gives 50% inhibition. The low end stands for inhibition by little substance, the high end for a need for much substance. With `CN(C)C[C@H](c1cccc(I)c1)n1ccc(-c2c[nH]c3ncc(N4CCOCC4)cc23)cc1=O` [Compound no6 (S), (S)-1-(2-(dimethylamino)-1-(3-iodophenyl)ethyl)-4-(5-morpholino-1H-pyrrolo[2,3-b]pyridin-3-yl)pyridin-2(1H)-one], the IC50 was determined as 42 nM.

On to `CN(C)C[C@H](c1cc(F)cc(Cl)c1)n1ccc(-c2c[nH]c3ncc(N4CCOCC4)cc23)cc1=O` [Compound no9 (S), (S)-1-(1-(3-chloro-5-fluorophenyl)-2-(dimethylamino)ethyl)-4-(5-morpholino-1H-pyrrolo[2,3-b]pyridin-3-yl)pyridin-2(1H)-one], for which the IC50 amounted to 188 nM.

Consider `CN(C)C[C@H](c1cc(F)cc(I)c1)n1ccc(-c2c[nH]c3ncc(N4CCOCC4)cc23)cc1=O` [Compound no10 (S), (S)-1-(2-(dimethylamino)-1-(3-fluoro-5-iodophenyl)ethyl)-4-(5-morpholino-1H-pyrrolo[2,3-b]pyridin-3-yl)pyridin-2(1H)-one], for which it took 116 nM to reach half-maximal inhibition (IC50).

Turning to `CN(CC(F)F)C[C@H](c1cccc(Cl)c1)n1ccc(-c2c[nH]c3ncc(N4CCOCC4)cc23)cc1=O` [Compound no11 (S), (S)-1-(1-(3-chlorophenyl)-2-((2,2-difluoroethyl)(methyl)amino)ethyl)-4-(5-morpholino-1H-pyrrolo[2,3-b]pyridin-3-yl)pyridin-2(1H)-one], inhibition was half-maximal at 229 nM (IC50).

`CN(CC#N)C[C@H](c1cccc(Cl)c1)n1ccc(-c2c[nH]c3ncc(N4CCOCC4)cc23)cc1=O` [Compound no12 (S), (S)-2-((2-(3-chlorophenyl)-2-(4-(5-morpholino-1H-pyrrolo[2,3-b]pyridin-3-yl)-2-oxopyridin-1(2H)-yl)ethyl)(methyl)amino)acetonitrile] had an IC50 of 7 nM.

Consider `COCCN(C)C[C@H](c1cccc(Cl)c1)n1ccc(-c2c[nH]c3ncc(N4CCOCC4)cc23)cc1=O` [Compound no13 (S), (S)-1-(1-(3-chlorophenyl)-2-((2-methoxyethyl)(methyl)amino)ethyl)-4-(5-morpholino-1H-pyrrolo[2,3-b]pyridin-3-yl)pyridin-2(1H)-one], for which inhibition was half-maximal at 262 nM (IC50).

In turn, `CN(C[C@H](c1cccc(Cl)c1)n1ccc(-c2c[nH]c3ncc(N4CCOCC4)cc23)cc1=O)C1CC1` [Compound no14 (S), (S)-1-(1-(3-chlorophenyl)-2-(cyclopropyl(methyl)amino)ethyl)-4-(5-morpholino-1H-pyrrolo[2,3-b]pyridin-3-yl)pyridin-2(1H)-one] yielded an IC50 of 420 nM.

Take `CCN(C)C[C@H](c1cccc(Cl)c1)n1ccc(-c2c[nH]c3ncc(N4CCOCC4)cc23)cc1=O` [Compound no15 (S), (S)-1-(1-(3-chlorophenyl)-2-(ethyl(methyl)amino)ethyl)-4-(5-morpholino-1H-pyrrolo[2,3-b]pyridin-3-yl)pyridin-2(1H)-one]: the IC50 amounted to 51 nM.

In turn, `CN(CC1CC1)C[C@H](c1cccc(Cl)c1)n1ccc(-c2c[nH]c3ncc(N4CCOCC4)cc23)cc1=O` [Compound no16 (S), (S)-1-(1-(3-chlorophenyl)-2-((cyclopropylmethyl)(methyl)amino)ethyl)-4-(5-morpholino-1H-pyrrolo[2,3-b]pyridin-3-yl)pyridin-2(1H)-one] yielded an IC50 of 162 nM.

Molecule `CN(C)C[C@H](c1cc(F)cc(F)c1)n1ccc(-c2c[nH]c3ncc(N4CCOCC4)cc23)cc1=O` [Compound no18 (S), (S)-1-(1-(3,5-difluorophenyl)-2-(dimethylamino)ethyl)-4-(5-morpholino-1H-pyrrolo[2,3-b]pyridin-3-yl)pyridin-2(1H)-one] gave an IC50 of 371 nM.

Turning to `CN(C)C[C@H](c1cccc(Cl)c1)n1cc(F)c(-c2c[nH]c3ncc(N4CCOCC4)cc23)cc1=O` [Compound no19 (S), (S)-1-(1-(3-chlorophenyl)-2-(dimethylamino)ethyl)-5-fluoro-4-(5-morpholino-1H-pyrrolo[2,3-b]pyridin-3-yl)pyridin-2(1H)-one], it took 303 nM to reach half-maximal inhibition (IC50).

As for `Cc1cc(-c2c[nH]c3ncc(N4CCOCC4)cc23)cc(=O)n1[C@H](CN(C)C)c1cccc(Cl)c1` [Compound no20 (S), (S)-1-(1-(3-chlorophenyl)-2-(dimethylamino)ethyl)-6-methyl-4-(5-morpholino-1H-pyrrolo[2,3-b]pyridin-3-yl)pyridin-2(1H)-one], inhibition was half-maximal at 825 nM (IC50).

Regarding `CN(C)C[C@H](c1cccc(Cl)c1)n1ccc(-c2c[nH]c3ncc(N4CCOC(C(F)(F)F)C4)cc23)cc1=O` (stereo partly drawn) [Compound no21 (S), 1-((S)-1-(3-chlorophenyl)-2-(dimethylamino)ethyl)-4-(5-(2-(trifluoromethyl)morpholino)-1H-pyrrolo[2,3-b]pyridin-3-yl)pyridin-2(1H)-one], the IC50 worked out at 199 nM.

`O=c1cc(-c2c[nH]c3ncc(N4CCOCC4)cc23)ccn1[C@H](CN1CC1)c1cccc(Cl)c1` [Compound no24 (S), (S)-1-(2-(aziridin-1-yl)-1-(3-chlorophenyl)ethyl)-4-(5-morpholino-1H-pyrrolo[2,3-b]pyridin-3-yl)pyridin-2(1H)-one] showed an IC50 of 96 nM.

On to `CN(C)C[C@H](c1cccc(C#N)c1)n1ccc(-c2c[nH]c3ncc(N4CCOCC4)cc23)cc1=O` [Compound no25 (S), (S)-3-(2-(dimethylamino)-1-(4-(5-morpholino-1H-pyrrolo[2,3-b]pyridin-3-yl)-2-oxopyridin-1(2H)-yl)ethyl)benzonitrile], for which the midpoint of inhibition, the IC50, lay at 156 nM.

With `CN(C)C[C@H](c1cccc(C(F)(F)F)c1)n1ccc(-c2c[nH]c3ncc(N4CCOCC4)cc23)cc1=O` [Compound no26 (S), (S)-1-(2-(dimethylamino)-1-(3-(trifluoromethyl)phenyl)ethyl)-4-(5-morpholino-1H-pyrrolo[2,3-b]pyridin-3-yl)pyridin-2(1H)-one], the IC50 is 15 nM.

In the next assay the target is 58 kinases. Briefly: Kinase panel (Z′-Lyte, Adapta/Lanthascreen), 58 kinases. Format: biochemical. To be noted: number of the 58 kinases inhibited more than 50% at 500 nM. The method, then:
To assess the kinase selectivity of compounds, Z′-Lyte biochemical assay, and Adapta/Lanthascreen binding assays from Life technologies were used according to manufacturer's instructions. Pourcentages of inhibition at 500 nM of test compounds were performed towards 58 kinases: ABL1, ACVR1B (ALK4), AKT2 (PKB beta), AMPK (A1/132/G3), AURKA (Aurora A), AXL, BRAF, BTK, CAMK2B (CaMKII beta), CDK2/cyclin A, CHEK1 (CHK1), CLK1, CSNK1A1 (CK1 alpha 1), CSNK2A1 (CK2 alpha 1), DAPK3 (ZIPK), DYRK1A, EGFR (ErbB1), EPHB3, ERBB2 (HER2), FGFR2, FLT3, FRAP1 (mTOR), GSK3B (GSK3 beta), IGF1R, IKBKB (IKK beta), INSR, IRAK4, JAK2, KDR (VEGFR2), KIT, LCK, MAP2K1 (MEK1), MAPK10 (JNK3), MAPK11 (p38 beta), MAPKAPK2, MARK2, MET (cMet), NEK2, NTRK1 (TRKA), PAK2 (PAK65), PDGFRB (PDGFR beta), PDK1 Direct, PHKG2, PIK3CA/PIK3R1 (p110 alpha/p85 alpha), PIM1, PLK1, PRKACA (PKA), PRKCA (PKC alpha), PTK2 (FAK), RET, ROCK1, RPS6KA1 (RSK1), RPS6KB1 (p70S6K), SRC, STK3 (MST2), SYK, TEK (Tie2), TYRO3 (RSE).
(In TR-FRET formats the signal depends on donor and acceptor labels being close together.)
As for `NC[C@H](c1cccc(Cl)c1)n1ccc(-c2c[nH]c3ncc(N4CCOCC4)cc23)cc1=O` [Comparative compound A (S), (S)-1-(2-amino-1-(3-chlorophenyl)ethyl)-4-(5-morpholino-1H-pyrrolo[2,3-b]pyridin-3-yl)pyridin-2(1H)-one, reference compound], the “Kinase panel @500 nM hits > 50%” value was 26/58.

On to `CNC[C@H](c1ccc(Cl)c(Cl)c1)n1ccc(-c2c[nH]c3ncc(N4CCOCC4)cc23)cc1=O` [Comparative compound B (S), (S)-1-(1-(3,4-dichlorophenyl)-2-(methylamino)ethyl)-4-(5-morpholino-1H-pyrrolo[2,3-b]pyridin-3-yl)pyridin-2(1H)-one, reference compound], for which the “Kinase panel @500 nM hits > 50%” value is given as 20/58.

Still in this assay, the particulars now being: number of the 58 kinases inhibited more than 80% at 500 nM.
On to `NC[C@H](c1cccc(Cl)c1)n1ccc(-c2c[nH]c3ncc(N4CCOCC4)cc23)cc1=O` [Comparative compound A (S), (S)-1-(2-amino-1-(3-chlorophenyl)ethyl)-4-(5-morpholino-1H-pyrrolo[2,3-b]pyridin-3-yl)pyridin-2(1H)-one, reference compound], for which the “Kinase panel @500 nM hits > 80%” value is given as 15/58.

Regarding `CNC[C@H](c1ccc(Cl)c(Cl)c1)n1ccc(-c2c[nH]c3ncc(N4CCOCC4)cc23)cc1=O` [Comparative compound B (S), (S)-1-(1-(3,4-dichlorophenyl)-2-(methylamino)ethyl)-4-(5-morpholino-1H-pyrrolo[2,3-b]pyridin-3-yl)pyridin-2(1H)-one, reference compound], the “Kinase panel @500 nM hits > 80%” value is reported as 10/58.

Another assay concerns the target T1, ERK2 (MAPK1) (Homo sapiens, UniProt P28482).
T1 construct: purchased Life technologies
Briefly: ERK2 (MAPK1) enzymatic assay (Z′-Lyte). Format: biochemical.
Conditions: not given
The method, then: To assess the capacity of compounds to inhibit ERK2 enzymatic activity, Z′-Lyte biochemical assay from Life technologies was used according to manufacturer's instructions. Briefly, black 384-well plates containing 100 nl of 100× compound solution in 100% DMSO, 2.4 μl kinase buffer, 5 μl 2×MAPK1 (ERK2)/Ser/Thr 03 mixture and 2.5 μl 4×ATP solution were used. Plates were shaken for 30 seconds and incubated for 60 minutes at room temperature. Then, 5 μl of a 1:1024 dilution of Development Reagent A was added. Plates were shaken for 30 seconds and incubated for 60 minutes at room temperature. A plate reader was used to read fluorescence. […] Kinase buffer consisted of 50 mM HEPES pH 7.5, 0.01% BRIJ-35, 10 mM MgCl2, 1 mM EGTA.
Consider `CN(C)CC(c1cc(F)cc(Cl)c1)n1ccc(-c2c[nH]c3ncc(N4CCOCC4)cc23)cc1=O` (racemic) [Compound no9 (racemate), 1-(1-(3-Chloro-5-fluorophenyl)-2-(dimethylamino)ethyl)-4-(5-morpholino-1H-pyrrolo[2,3-b]pyridin-3-yl)pyridin-2(1H)-one], for which the half-inhibitory concentration (IC50) worked out at 7.7 nM.

Molecule `CN(C)CC(c1cc(F)cc(I)c1)n1ccc(-c2c[nH]c3ncc(N4CCOCC4)cc23)cc1=O` (racemic) [Compound no10 (racemate), 1-(2-(dimethylamino)-1-(3-fluoro-5-iodophenyl)ethyl)-4-(5-morpholino-1H-pyrrolo[2,3-b]pyridin-3-yl)pyridin-2(1H)-one] returned an IC50 of 5.1 nM.

The molecule `CN(C)C[C@H](c1cccc(I)c1)n1ccc(-c2c[nH]c3ncc(N4CCOCC4)cc23)cc1=O` [Compound no6 (S), (S)-1-(2-(dimethylamino)-1-(3-iodophenyl)ethyl)-4-(5-morpholino-1H-pyrrolo[2,3-b]pyridin-3-yl)pyridin-2(1H)-one] returned an IC50 of 2.4 nM.

For `CCN(C)C[C@H](c1cccc(Cl)c1)n1ccc(-c2c[nH]c3ncc(N4CCOCC4)cc23)cc1=O` [Compound no15 (S), (S)-1-(1-(3-chlorophenyl)-2-(ethyl(methyl)amino)ethyl)-4-(5-morpholino-1H-pyrrolo[2,3-b]pyridin-3-yl)pyridin-2(1H)-one], the IC50 turned out to be 3.5 nM.
